# Measurements reported in the supplement of paper PMC10307832.
# What was measured:
# Assay in all cases: relative viability (nuclei count vs DMSO), 5 days (fraction); higher = more cells survive
# NCI-H460 = test system: NCI-H460
# Method in brief: (§1)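 Relative viability divides the nuclei count in treated wells by that in vehicle wells. Lung cancer cell lines were seeded in 1536-well plates, dosed by pin tool the next day, and fixed and stained after 5 days in one step with final 0.05% Triton X-100, 1% formaldehyde and 1 ug/ml Hoechst. Dosing was a single drug or a fixed anchor-drug dose plus five library-drug doses (not always all listed) in √10 steps, and values are medians of duplicate plates imaged at 4×.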
# LK-2 = test system: LK-2
# Method in brief: as §1
# LU99A = test system: LU99A
# Method in brief: as §1
# NCI-H1793 = test system: NCI-H1793
# Method in brief: as §1
# NCI-H2347 = test system: NCI-H2347
# Method in brief: as §1
# COR-L23 = test system: COR-L23
# Method in brief: as §1
# PC-14 = test system: PC-14
# Method in brief: as §1
# A-427 = test system: A-427
# Method in brief: as §1
# SW 900 = test system: SW 900
# Method in brief: as §1
# SW 1573 = test system: SW 1573
# Method in brief: as §1
# LCLC-103H = test system: LCLC-103H
# Method in brief: as §1
# NCI-H596 = test system: NCI-H596
# Method in brief: as §1
# LCLC-97TM1 = test system: LCLC-97TM1
# Method in brief: as §1
# 201T = test system: 201T
# Method in brief: as §1
# H3255 = test system: H3255
# Method in brief: as §1
# LC-2-ad = test system: LC-2-ad
# Method in brief: as §1
# NCI-H1650 = test system: NCI-H1650
# Method in brief: as §1
# NCI-H23 = test system: NCI-H23
# Method in brief: as §1
# NCI-H727 = test system: NCI-H727
# Method in brief: as §1
# HCC-44 = test system: HCC-44
# Method in brief: as §1
# NCI-H2228 = test system: NCI-H2228
# Method in brief: as §1
smiles,measurement,setting,value
COc1cc2nccc(Oc3ccc(NC(=O)Nc4cc(C)on4)c(Cl)c3)c2cc1OC [Tivozanib] + CC(=O)Nc1cccc(-n2c(=O)n(C3CC3)c(=O)c3c(Nc4ccc(I)cc4F)n(C)c(=O)c(C)c32)c1 [Trametinib] (partner 0.02 µM),relative viability,NCI-H460; first compound 0.005 µM,0.13
same,relative viability,NCI-H460; first compound 0.01581 µM,0.192
same,relative viability,NCI-H460; first compound 0.05 µM,0.254
same,relative viability,NCI-H460; first compound 0.1581 µM,0.13
same,relative viability,NCI-H460; first compound 0.5 µM,0.236
same,relative viability,LK-2; first compound 0.005 µM,0.933
same,relative viability,LK-2; first compound 0.01581 µM,0.534
same,relative viability,LK-2; first compound 0.05 µM,0.622
same,relative viability,LK-2; first compound 0.1581 µM,0.85
same,relative viability,LK-2; first compound 0.5 µM,0.773
same,relative viability,LU99A; first compound 0.005 µM,0.626
same,relative viability,LU99A; first compound 0.01581 µM,0.496
same,relative viability,LU99A; first compound 0.05 µM,0.61
same,relative viability,LU99A; first compound 0.1581 µM,0.396
same,relative viability,LU99A; first compound 0.5 µM,0.563
same,relative viability,NCI-H1793; first compound 0.005 µM,0.305
same,relative viability,NCI-H1793; first compound 0.01581 µM,0.457
same,relative viability,NCI-H1793; first compound 0.05 µM,0.471
same,relative viability,NCI-H1793; first compound 0.5 µM,0.445
same,relative viability,NCI-H2347; first compound 0.005 µM,0.311
same,relative viability,NCI-H2347; first compound 0.01581 µM,0.27
same,relative viability,NCI-H2347; first compound 0.05 µM,0.294
same,relative viability,NCI-H2347; first compound 0.1581 µM,0.317
same,relative viability,NCI-H2347; first compound 0.5 µM,0.284
same,relative viability,COR-L23; first compound 0.005 µM,0.542
same,relative viability,COR-L23; first compound 0.01581 µM,0.577
same,relative viability,COR-L23; first compound 0.05 µM,0.588
same,relative viability,COR-L23; first compound 0.1581 µM,0.421
same,relative viability,COR-L23; first compound 0.5 µM,0.545
same,relative viability,PC-14; first compound 0.005 µM,0.654
same,relative viability,PC-14; first compound 0.01581 µM,0.766
same,relative viability,PC-14; first compound 0.05 µM,0.844
same,relative viability,PC-14; first compound 0.1581 µM,0.84
same,relative viability,PC-14; first compound 0.5 µM,0.751
same,relative viability,A-427; first compound 0.005 µM,0.696
same,relative viability,A-427; first compound 0.01581 µM,0.718
same,relative viability,A-427; first compound 0.05 µM,0.758
same,relative viability,A-427; first compound 0.1581 µM,0.67
same,relative viability,A-427; first compound 0.5 µM,0.686
same,relative viability,SW 900; first compound 0.005 µM,0.692
same,relative viability,SW 900; first compound 0.01581 µM,1.18
same,relative viability,SW 900; first compound 0.05 µM,1.04
same,relative viability,SW 900; first compound 0.5 µM,0.829
same,relative viability,SW 1573; first compound 0.005 µM,0.541
same,relative viability,SW 1573; first compound 0.01581 µM,0.644
same,relative viability,SW 1573; first compound 0.05 µM,0.464
same,relative viability,SW 1573; first compound 0.1581 µM,0.457
same,relative viability,SW 1573; first compound 0.5 µM,0.416
same,relative viability,LCLC-103H; first compound 0.005 µM,0.673
same,relative viability,LCLC-103H; first compound 0.01581 µM,0.78
same,relative viability,LCLC-103H; first compound 0.05 µM,0.694
same,relative viability,LCLC-103H; first compound 0.1581 µM,0.729
same,relative viability,LCLC-103H; first compound 0.5 µM,0.695
same,relative viability,NCI-H596; first compound 0.005 µM,0.653
same,relative viability,NCI-H596; first compound 0.01581 µM,0.834
same,relative viability,NCI-H596; first compound 0.05 µM,0.725
same,relative viability,NCI-H596; first compound 0.5 µM,0.931
same,relative viability,LCLC-97TM1; first compound 0.005 µM,0.15
same,relative viability,LCLC-97TM1; first compound 0.01581 µM,0.194
same,relative viability,LCLC-97TM1; first compound 0.05 µM,0.206
same,relative viability,LCLC-97TM1; first compound 0.1581 µM,0.165
same,relative viability,LCLC-97TM1; first compound 0.5 µM,0.273
same,relative viability,201T; first compound 0.005 µM,0.691
same,relative viability,201T; first compound 0.01581 µM,0.759
same,relative viability,201T; first compound 0.05 µM,0.681
same,relative viability,201T; first compound 0.1581 µM,0.717
same,relative viability,201T; first compound 0.5 µM,0.784
same,relative viability,H3255; first compound 0.005 µM,0.531
same,relative viability,H3255; first compound 0.01581 µM,0.61
same,relative viability,H3255; first compound 0.05 µM,0.659
same,relative viability,H3255; first compound 0.1581 µM,0.608
same,relative viability,H3255; first compound 0.5 µM,0.59
same,relative viability,LC-2-ad; first compound 0.005 µM,0.91
same,relative viability,LC-2-ad; first compound 0.01581 µM,0.849
same,relative viability,LC-2-ad; first compound 0.05 µM,0.888
same,relative viability,LC-2-ad; first compound 0.1581 µM,0.601
same,relative viability,LC-2-ad; first compound 0.5 µM,0.497
same,relative viability,NCI-H1650; first compound 0.005 µM,0.592
same,relative viability,NCI-H1650; first compound 0.01581 µM,0.582
same,relative viability,NCI-H1650; first compound 0.05 µM,0.584
same,relative viability,NCI-H1650; first compound 0.1581 µM,0.545
same,relative viability,NCI-H1650; first compound 0.5 µM,0.547
same,relative viability,NCI-H23; first compound 0.005 µM,0.363
same,relative viability,NCI-H23; first compound 0.01581 µM,0.364
same,relative viability,NCI-H23; first compound 0.05 µM,0.383
same,relative viability,NCI-H23; first compound 0.5 µM,0.373
same,relative viability,NCI-H727; first compound 0.005 µM,0.385
same,relative viability,NCI-H727; first compound 0.01581 µM,0.419
same,relative viability,NCI-H727; first compound 0.05 µM,0.366
same,relative viability,NCI-H727; first compound 0.1581 µM,0.38
same,relative viability,NCI-H727; first compound 0.5 µM,0.398
same,relative viability,HCC-44; first compound 0.005 µM,0.992
same,relative viability,HCC-44; first compound 0.01581 µM,1.09
same,relative viability,HCC-44; first compound 0.05 µM,1.05
same,relative viability,HCC-44; first compound 0.1581 µM,1.09
same,relative viability,HCC-44; first compound 0.5 µM,1.07
same,relative viability,NCI-H2228; first compound 0.005 µM,0.55
same,relative viability,NCI-H2228; first compound 0.01581 µM,0.595
same,relative viability,NCI-H2228; first compound 0.05 µM,0.514
same,relative viability,NCI-H2228; first compound 0.1581 µM,0.249
same,relative viability,NCI-H2228; first compound 0.5 µM,0.539
